These results are taken from paper PMC6371206 (ACS Pharmacology & Translational Science, 2019).

Read-outs that look alike come from different tables or passages of the source.

For orientation: Emax means the greatest response seen or fitted, relative to the assay's reference. Broadly, the EC50 is the concentration that produces a half-maximal response. A low value points to an effect from little substance.

Assay [1] addresses hD2R (D2SR), Gi1 activation (Homo sapiens, UniProt P14416). The assay can be described thus: cell-based. The class given is cell-based. The note with it: for Emax: HEK293, read-out: Gi1 Activation Emax; for Gi1 Activation Emax: 30 min, normalized to quinpirole Emax; for Gi1 Activation Emax / EC50: hD2R in HEK293 cells; for EC50: Gi1 Activation EC50, 30 min.
Another assay has as its system hD2R. The experiment in a line: Pairwise bias factor calculation. In kind it is cell-based, human. Conditions: for Go-protein bias over β-arrestin: bias expressed as fold; for Bias factor GoA−βarrestin / Bias factor Gi1–GoA activation / Bias factor cAMP−βarrestin: logarithmic scale, relative to quinpirole, 30 min data; for Bias factor Gi1–GoA activation: negative = GoA bias.

Assay [2] deals with hD2R (D2SR), cAMP inhibition (Homo sapiens, UniProt P14416). The assay can be described thus: cell-based. The note with it: for Emax: HEK293, read-out: cAMP Inhibition Emax; for EC50: cAMP Inhibition EC50, 30 min, hD2R in HEK293 cells.
Assay [3] addresses hD2R (D2SR), β-arrestin 2 recruitment (Homo sapiens, UniProt P14416). The experiment in a line: cell-based. In kind it is cell-based. Conditions: for Emax: HEK293, read-out: βArrestin2 Recruitment Emax. On the technique in general: Recruitment of arrestin is a read-out of receptor activation apart from second messengers.
The target of assay [4] is hD2R (D2SR), GoA activation (Homo sapiens, UniProt P14416). The experiment in a line: cell-based. The note with it: for EC50: GoA Activation EC50, 30 min, hD2R in HEK293 cells; for Emax: HEK293, read-out: GoA Activation Emax.
In assay [5] the test system is D2R-expressing dopaminergic neurons in VTA and SNc (GIRK activity). In kind it is cell-based, mouse.

Sequence of hD2R (D2SR), cAMP inhibition (P14416 1-414 isoform P14416-2): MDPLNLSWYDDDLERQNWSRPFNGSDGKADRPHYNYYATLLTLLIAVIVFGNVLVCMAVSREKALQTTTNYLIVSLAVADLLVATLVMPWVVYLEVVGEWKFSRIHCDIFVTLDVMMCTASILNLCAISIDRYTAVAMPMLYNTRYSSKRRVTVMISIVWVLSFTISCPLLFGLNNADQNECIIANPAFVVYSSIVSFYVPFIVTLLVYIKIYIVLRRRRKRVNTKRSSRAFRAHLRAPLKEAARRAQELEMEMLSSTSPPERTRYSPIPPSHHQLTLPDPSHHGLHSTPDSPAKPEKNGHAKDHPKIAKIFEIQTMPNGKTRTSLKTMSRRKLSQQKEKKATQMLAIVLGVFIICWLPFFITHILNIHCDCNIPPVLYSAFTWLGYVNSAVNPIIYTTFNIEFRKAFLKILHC
Sequence of hD2R (D2SR), GoA activation (P14416 1-414 isoform P14416-2): as above
Sequence of hD2R (D2SR), GoA activation (P09471 2-354 partner limits assumed): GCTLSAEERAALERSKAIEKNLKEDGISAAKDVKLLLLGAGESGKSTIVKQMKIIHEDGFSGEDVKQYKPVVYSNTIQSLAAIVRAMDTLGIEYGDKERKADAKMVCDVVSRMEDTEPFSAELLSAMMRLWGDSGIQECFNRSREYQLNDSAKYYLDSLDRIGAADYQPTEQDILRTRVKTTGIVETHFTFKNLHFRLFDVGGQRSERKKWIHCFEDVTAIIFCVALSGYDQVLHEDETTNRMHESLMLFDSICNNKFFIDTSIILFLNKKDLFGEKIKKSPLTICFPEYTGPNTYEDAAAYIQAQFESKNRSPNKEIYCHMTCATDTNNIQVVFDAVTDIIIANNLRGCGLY
Sequence of hD2R (D2SR), GoA activation (P62873 2-340 partner limits assumed): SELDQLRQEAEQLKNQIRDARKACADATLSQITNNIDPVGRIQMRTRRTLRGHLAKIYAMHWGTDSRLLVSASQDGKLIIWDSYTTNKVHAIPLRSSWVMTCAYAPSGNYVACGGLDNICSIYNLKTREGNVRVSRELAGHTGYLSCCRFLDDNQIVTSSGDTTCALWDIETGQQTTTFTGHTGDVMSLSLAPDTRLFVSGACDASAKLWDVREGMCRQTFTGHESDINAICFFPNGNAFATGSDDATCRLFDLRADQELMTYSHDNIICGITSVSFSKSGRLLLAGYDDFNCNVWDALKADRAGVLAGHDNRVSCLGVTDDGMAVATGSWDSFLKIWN
Sequence of hD2R (D2SR), GoA activation (P59768 2-68 partner limits assumed): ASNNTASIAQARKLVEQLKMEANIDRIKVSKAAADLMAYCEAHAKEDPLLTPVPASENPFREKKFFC
Sequence of hD2R (D2SR), β-arrestin 2 recruitment (P14416 1-414 isoform P14416-2): as the sequence (P14416 1-414 isoform P14416-2) above
Sequence of hD2R (D2SR), β-arrestin 2 recruitment (P32121 whole entry partner): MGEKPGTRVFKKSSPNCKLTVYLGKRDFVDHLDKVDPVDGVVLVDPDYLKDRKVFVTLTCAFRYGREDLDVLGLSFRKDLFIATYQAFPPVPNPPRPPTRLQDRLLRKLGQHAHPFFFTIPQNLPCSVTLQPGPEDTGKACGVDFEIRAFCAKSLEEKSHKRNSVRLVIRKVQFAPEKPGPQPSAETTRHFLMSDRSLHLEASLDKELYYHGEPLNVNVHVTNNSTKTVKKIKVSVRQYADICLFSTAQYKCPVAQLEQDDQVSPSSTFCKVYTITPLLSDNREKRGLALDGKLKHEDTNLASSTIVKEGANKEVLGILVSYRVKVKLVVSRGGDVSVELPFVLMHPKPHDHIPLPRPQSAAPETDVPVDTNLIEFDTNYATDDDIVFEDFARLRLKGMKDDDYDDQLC
Sequence of hD2R (D2SR), Gi1 activation (P14416 1-414 isoform P14416-2): as the sequence (P14416 1-414 isoform P14416-2) above
Sequence of hD2R (D2SR), Gi1 activation (P63096 2-354 partner limits assumed): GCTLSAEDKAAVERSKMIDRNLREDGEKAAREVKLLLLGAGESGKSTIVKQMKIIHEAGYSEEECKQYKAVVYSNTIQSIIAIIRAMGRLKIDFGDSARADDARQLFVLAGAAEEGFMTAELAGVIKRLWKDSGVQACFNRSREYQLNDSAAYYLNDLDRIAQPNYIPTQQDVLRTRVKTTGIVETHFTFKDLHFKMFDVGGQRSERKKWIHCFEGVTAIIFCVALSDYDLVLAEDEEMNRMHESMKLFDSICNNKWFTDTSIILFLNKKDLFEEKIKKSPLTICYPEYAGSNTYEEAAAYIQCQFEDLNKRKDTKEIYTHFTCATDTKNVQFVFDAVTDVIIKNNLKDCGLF
Sequence of hD2R (D2SR), Gi1 activation (P62873 2-340 partner limits assumed): as the sequence (P62873 2-340 partner limits assumed) above
Sequence of hD2R (D2SR), Gi1 activation (P59768 2-68 partner limits assumed): as the sequence (P59768 2-68 partner limits assumed) above

For `CN(CCCCNC(=O)c1cc2ccccc2[nH]1)[C@@H]1Cc2cccc3[nH]c(=O)n(c23)C1` [Compound 1], the Emax in assay [1] came to 51 ± 4.4%. Further, in the assay with hD2R, the “Go-protein bias over β-arrestin” value is listed as about 30 fold, the “Bias factor GoA−βarrestin” value is on record as 1.51 and the “Bias factor Gi1–GoA activation” value is “–0.98”.

Turning to `CC1Cc2ccccc2N1C(=O)c1nc2ccccc2s1` (stereo not shown) [Compound 2, reference compound], in assay [1], the “Gi1 Activation Emax” value was “low efficacy”, the EC50 worked out at 39.7 ± 39.7 nM and the Emax was 8.1 ± 8.2%. Further, in assay [2], the Emax came out at 58.5 ± 30.2% and the EC50 was 22.9 ± 19 nM. Further, the “βArrestin2 Recruitment Emax” value in assay [3] (30 min, hD2R in HEK293 cells, normalized to quinpirole Emax) is reported as “low efficacy”. Besides, in assay [4], the EC50 turned out to be 61.1 ± 48.8 nM and the Emax was 31.9 ± 7%.

For `CN(CCCCNC(=O)c1ccc2scnc2c1)[C@@H]1Cc2cccc3[nH]c(=O)n(c23)C1` [Compound 8], in assay [1], the “Gi1 Activation Emax” value is reported as “fully efficacious”, a half-maximal response (EC50) required 144 ± 52.6 nM and the Emax came out at 108 ± 7.3%. In addition, in assay [2], the Emax turned out to be 95.4 ± 4.7% and it took 5.2 ± 1.8 nM to reach a half-maximal effect (EC50). Also, in assay [3], the EC50 is 208 ± 173 nM and the Emax was found to be 76.4 ± 20.1%. In the assay with hD2R, the “Bias factor GoA−βarrestin” value is recorded as 1.21, the “Bias factor cAMP−βarrestin” value is listed as 1.05 and the “Bias factor Gi1–GoA activation” value was “–0.44”. In addition, in assay [4], a half-maximal effect (EC50) was put at 7.3 ± 3.6 nM and the Emax came to 92.1 ± 7.2%.

On to `CN(CCCCNC(=O)c1nc2ccccc2s1)[C@@H]1Cc2cccc3[nH]c(=O)n(c23)C1` [Compound 9], for which, in assay [1], the EC50 was 301 ± 147 nM and the Emax came out at 85.1 ± 8.6%. Besides, in assay [2], the Emax worked out at 84 ± 6.2% and the EC50 is 79.1 ± 31.7 nM. In addition, in assay [3], the EC50 was determined as 794 ± 711 nM and the Emax amounted to 64.2 ± 25.6%. Besides, in the assay on hD2R, the “Bias factor GoA−βarrestin” value was 0.55, the “Bias factor cAMP−βarrestin” value is 0.56 and the “Bias factor Gi1–GoA activation” value is given as 0.43. Besides, in assay [4], the EC50 stood at 117 ± 59 nM and the Emax came to 75.5 ± 7.8%.

Regarding `CN(C[C@@H]1C[C@H]1CCNC(=O)c1cc2ccccc2[nH]1)[C@@H]1Cc2cccc3[nH]c(=O)n(c23)C1` [Compound 19], in assay [1], the EC50 came to 129 ± 56.3 nM and the Emax worked out at 57.6 ± 4.9%. Besides, in assay [2], the Emax is 60.5 ± 1.5% and the EC50 is 6 ± 1.1 nM. Besides, in assay [3], a half-maximal effect (EC50) was put at 80.5 ± 35.7 nM and the Emax amounted to 30.5 ± 2.6%. In the assay with hD2R, the “Go-protein bias over β-arrestin” value was over 1000 fold, the “Bias factor GoA−βarrestin” value is 3.44 and the “Bias factor cAMP−βarrestin” value was 1.93. In addition, in assay [4], it took 1 ± 0.5 nM to reach a half-maximal effect (EC50) and the Emax stood at 74 ± 5.4%.

On to `CN(CC[C@@H]1C[C@H]1CNC(=O)c1cc2ccccc2[nH]1)[C@@H]1Cc2cccc3[nH]c(=O)n(c23)C1` [Compound 20], for which, in assay [1], the EC50 was 184 ± 63.6 nM and the Emax was 72.4 ± 4.6%. In addition, in assay [2], the Emax stood at 59.8 ± 1.5% and the EC50 was determined as 81.1 ± 13.1 nM. In assay [3], the EC50 turned out to be 208 ± 85.8 nM and the Emax was 26 ± 2.1%. Also, in the assay on hD2R, the “Go-protein bias over β-arrestin” value is over 1000 fold, the “Bias factor GoA−βarrestin” value is listed as 2.50, the “Bias factor cAMP−βarrestin” value was 1.39 and the “Bias factor Gi1–GoA activation” value is on record as 0.24. In addition, in assay [4], the EC50 amounted to 103 ± 28.2 nM and the Emax was 80.3 ± 3.8%.

`CN[C@@H]1Cc2cccc3[nH]c(=O)n(c23)C1` [Sumanirole, (R)-5,6-dihydro-5-(methylamino)-4H-imidazo[4,5,1-ij]quinolin-2(1H)-one, reference compound]: in assay [5] (whole cell voltage-clamp, −60 mV, 3 and 30 μM), the “ligand-induced change of holding current” value was “produced an increase in the holding current”. Also, in the assay on hD2R, the “Bias factor GoA−βarrestin” value is listed as 0.15, the “Bias factor cAMP−βarrestin” value was “–0.10” and the “Bias factor Gi1–GoA activation” value is reported as “–0.54”.

On to `NCCc1ccc(O)c(O)c1` [dopamine], for which the “ligand-induced change of holding current” value in assay [5] was “produced an increase in the holding current”.

In the case of `CCN1CCCC1CNC(=O)c1cc(S(N)(=O)=O)ccc1OC` (stereo not shown) [sulpiride], in assay [5], the “effect of D2R antagonist on agonist-induced holding current change” value was “inhibited the change in the holding current induced by either sumanirole or 11”.
